Assay [1] relates to LPS stimulated TNF release in rat. In words: Rat LPS induced TNF release. Type of assay: in vivo. Particulars: 1.5 h, male Lewis rats, LPS 1 mg/kg i.v., plasma TNFα at 90 minutes, compound dosed p.o. The protocol:
Male Lewis rats (180-200 g) are anaesthetized with Isofluor and injected i.v. with LPS (1 mg/kg) in a volume of 0.5 ml sterile saline. After 90 minutes blood is collected into heparin tubes for preparation of plasma samples. Plasma is stored at −80° C. prior to assay for TNFα by commercial ELISA.

For assay [2], the system named is LPS stimulated release of TNF from Human whole blood. In words: LPS stimulation of whole blood, TNF-α release (ELISA). Type of assay: cell-based. The settings on record: LPS 1 μg/ml, 18 hours, 37° C., n=12. The protocol: Inhibitor stocks (10 mM) are kept as a frozen solution (−20° C.) in DMSO. Serial dilutions of inhibitors are prepared in DMSO as 200-times concentrated stocks. Inhibitors are diluted 1 in 200 into tissue culture media, prewarmed to 37° C. and transferred to plates containing PBMC. PBMC and inhibitors are incubated together for 30 mins prior to addition of LPS. Inhibitors used in whole blood assays are prepared according to a different regime. Using the same stock solution, serial dilutions of inhibitors are prepared in DMSO. Inhibitors (14) are then diluted 1 in 500 straight into whole blood. Inhibitor is incubated with whole blood for 30 mins prior to the addition of LPS.
Whole blood is taken by venous puncture using heparinised vacutainers (Becton Dickinson), and 500 μl of blood aliquoted into each well of a 96 deep well plate. After the addition of inhibitor, blood is stimulated with an optimal dose of LPS (E coli strain B5:055, Sigma, at a final concentration of 1 μg ml^−1) and incubated at 37° C. without CO2 for 18 hours. TNF-α levels are measured from cell free supernatants by sandwich ELISA (R&D Systems, # DY210).

Structures are written as SMILES.

In assay [1], `Cc1cccc(Nc2c(C(=O)N3CCC[C@@H]3CO)sc3c2ccc(=O)n3-c2c(F)cccc2F)n1` [Compound 1] came in with an ED50 of less than 10 mg/kg. This compound also gave an IC50 in assay [2] of 30 to 200 nM.

The values above are taken from US20100179185A1, “Novel Aminothienopyridinone Derivatives Processes for Preparing Them and Pharmaceutical Compositions Thereof” (UCB PHARMA, S.A., priority 2006, published 2010).
